Reference: patent US10919905B2, “Polymorphism for irinotecan free base” (ScinoPharm Taiwan, Ltd., priority 2019, dated 2021)

Experiment: variable humidity x-ray powder diffraction (VH-XRPD), humidity effect on XRPD pattern
Format: physicochemical
Settings: FIG. 7
Protocol: X-ray Powder Diffraction patterns were collected on a Bruker AXS D8 diffractometer using Cu Kα1 radiation (40 kV, 40 mA), θ-2θ goniometer, and divergence of 10 mm slits, a Ge monochromator and LynxEye detector. The representative PXRD pattern was collected under ambient condition.
Irinotecan free base (119 g) and dichloromethane (1600 mL, 13.5 vol) were added to a 3 L flask at room temperature (20-30° C.) to obtain a first suspension mixture. Water (120 mL, 1 vol) and 5% sodium bicarbonate (480 mL, 4 vol) were added to the first mixture at room temperature. The suspension was filtered, and then the phases were allowed to separate, and an organic layer was saved. Water (600 mL, 5 vol) was added, and the phases were allowed to separate, and the organic layer was saved. The organic layer was concentrated to about 430 mL (3.6 vol). Ethyl acetate (1440 mL, 12 vol) was added to the concentrated organic layer at 25-35° C. to obtain a second mixture. The second mixture was concentrated to about 1665 mL (14 vol) then cooled to 15-25° C. to obtain a slurry mixture. The slurry mixture was filtered, and a wet cake was obtained and dried under the nitrogen to afford irinotecan free base form S3 (98.04 g). The Form S3 was studied by using variable humidity x-ray powder diffraction (VH-XRPD) to investigate the humidity effect on XRPD pattern (FIG. 7). […] The changes in diffraction peaks are reversible with the humidity being changed.

SMILES: CCc1c2c(nc3ccc(OC(=O)N4CCC(N5CCCCC5)CC4)cc13)-c1cc3c(c(=O)n1C2)COC(=O)[C@]3(O)CC [Form S3, [1,4′-bipiperidine]-1′-carboxylic acid, (4S)-4,11-diethyl-3,4,12,14-tetrahydro-4-hydroxy-3,14-dioxo-1H-pyrano[3′,4′:6,7]indolizino[1,2-b]quinolin-9-yl ester]
- humidity effect on XRPD pattern (change in diffraction peaks) (sample exposed at 5-40% RH): no significant change in diffraction peaks was observed
- humidity effect on XRPD pattern (change in diffraction peaks) (sample exposed at higher than 60% RH): the diffraction peaks changed
- reversibility of changes in diffraction peaks (with the humidity being changed): reversible
